Where a SMILES comes first, the peptide text is derived from it. [ ]: non-standard residue; d: D form.
Legend:
[1] = system: Fusarium solani; assay type: cell-based; conditions: 37° C. for 20 hours; tested twice, first/second value where not matched
Description: (§1) Further, with respect to not only the above-described strains but also various other strains, the “minimum inhibitory concentration (MIC)” was measured as follows. MIC is the lowest concentration of an agent that may inhibit the growth of a bacterium. MIC is used as a parameter for the efficacy of an antibacterial agent, for the strength of bacterial sensitivity, or the like. The bacteria can grow (proliferate) when the concentration is not higher than MIC, and cannot grow when the concentration is higher than MIC. Its measurement is carried out according to a method defined as a standard method by Japanese Society of Chemotherapy or CLINICAL AND LABORATORY […] (CLSI), but, in this Example, its measurement was carried out by a broth microdilution method in accordance with “M100-S17/M7-A7” (Performance Standards for Antimicrobial Susceptibility Testing; Seventeenth Informational Supplement, Vol. 27 No. 1) published by CLSI on January, 2007. That is, sensitivity test of agents was carried out using a microtiter plate or test tubes.
(§2) The bacteria were cultured in liquid media for 4 to 6 hours, and thereafter absorbances at A600 were measured. Bacterial suspensions were diluted with Mueller-Hinton broth (MHB) according to McFarland #0.5. Each strain was added so as to attain about 10^5 CFU/ml (final concentration). Each peptide was prepared to an optional concentration, and the solutions were serially diluted from the concentration. The polypeptide at each concentration stage was added to a microplate or test tubes, and the bacterial suspension was added thereto. Chloramphenicol, amphotericin B, ciprofloxacin, meropenem (MEPM), ciprofloxacin (CPFX), tobramycin (TOB) and oxacillin (OX) were used as positive controls. The plate was incubated at 37° C. for 20 hours, and the lowest concentration where bacterial growth was inhibited was regarded as the minimum inhibitory concentration.

[2] = system: Trichophyton rubrum; assay type: cell-based; conditions: 37° C. for 20 hours; tested twice, first/second value where not matched
Description: as §1, §2

[3] = system: paper disc model, Crl:CD (SD) rats; experiment: Ability to form granulation tissue in paper disc model; assay type: in vivo, rat; conditions: 1, 10 or 100 μg/disc, subcutaneous, eight days
Description: Then, the ability to form granulation tissue of these polypeptides in vivo was studied. Each of the peptides which were test substances and whose concentration was respectively 25, 250 and 2500 μg/mL, the bFGF formulation whose concentration was respectively 2.5, 25 and 250 μg/mL (positive controls) or saline (negative controls) was added to a paper disc (FILTER PAPER φ8 mm, […]) in an amount of 40 μl, such that, in the final state, the dosage of each peptide was 1, 10 or 100 μg/disc. The prepared paper discs were embedded subcutaneously into the back of Crl:CD (SD) rats (male, 9-week old, obtained from Charles River Laboratories Japan, Inc.). Eight days later, the paper discs were taken out, and the granulation tissues around the paper discs were collected to determine their wet weight.

[4] = system: human vascular endothelial cells and fibroblast cells; experiment: Lumen formation test, areas of formed lumina (Angiogenesis Kit KZ-1000); assay type: cell-based; conditions: 0.5, 2.5 and 10 μg/mL, Day 11 of culture
Description: Then, in order to examine the angiogenesis activity of these, lumen formation by the polypeptides was evaluated using an angiogenesis kit available from KURABO […] LTD. (Product No.: KZ-1000). Vascular endothelial growth factor (VEGF) as a positive control, and polypeptide-free, unstimulated group as a negative control, were used.
Using a special medium for angiogenesis which was attached to the kit, each polypeptide was prepared such that the concentration thereof was respectively 0.5, 2.5 and 10 μg/mL. To a 24-well plate in which cells were plated (the cells were those obtained by co-culturing human vascular endothelial cells and fibroblast cells at an optimum concentration) which was attached to the kit, the special medium for angiogenesis containing each polypeptide was added, and the cells were cultured at 37° C. under 5% CO2. The medium was replaced with a medium containing the same additive on Day 4, Day 7 and Day 9 of culture. […]
Each of the obtained images was quantified using an angiogenesis quantification software. The areas of formed lumina observed in each visual field were measured on the basis of the scale of an angiogenesis quantification software available from KURABO […] […] (angiogenesis quantification software Ver 1.0), and evaluated on the basis of the ratio of the areas of polypeptide-containing groups relative to the area of the negative control group.

[5] = system: MSSA (clinical strain 1); experiment: microbe, parasite or virus in culture; assay type: cell-based, Staphylococcus aureus; conditions: 37° C. for 20 hours; tested twice, first/second value where not matched
Description: as §1, §2

CC[C@H](C)[C@H](NC(=O)[C@H](CC(C)C)NC(=O)[C@H](CCCCN)NC(=O)[C@@H](N)CC(C)C)C(=O)N[C@@H](Cc1ccccc1)C(=O)N[C@@H](CC(C)C)C(=O)N[C@@H](Cc1c[nH]cn1)C(=O)N[C@@H](CCCNC(=N)N)C(=O)N[C@@H](CC(C)C)C(=O)N[C@@H](CCCCN)C(=O)N[C@@H](CCCNC(=N)N)C(=O)N[C@@H](CCSC)C(=O)N[C@@H](CCCNC(=N)N)C(=O)N[C@@H](CCCCN)C(=O)N[C@@H](CCCNC(=N)N)C(=O)N[C@@H](CC(C)C)C(=O)N[C@H](CCCCN)C(=O)N[C@@H](CCCNC(=N)N)C(=O)N[C@@H](CCCCN)C(N)=O [SR-08] (H-LKLIFLHRLKRMRKRL[dK]RK-NH2; N-terminus assumed)
MIC, Fusarium solani [1]: 4/8
MIC, Trichophyton rubrum [2]: 128/64
Granulation tissue formation (wet weight around paper disc, FIGS. 5 and 6) [3]: promoted granulation tissue formation in vivo
Ability to form lumen (areas of formed lumina relative to negative control, FIG. 1) [4]: showed an ability to form lumen at the tested concentrations
MIC, MSSA (clinical strain 1) [5]: 16/32
